Data published in US20240174714A1, “TREATMENT OF SKIN DISORDERS” (priority 2021, published 2024).
Converted amounts (≈) assume the structure as drawn. Square brackets hold non-standard residues; d marks the D form. Peptide text beside a SMILES is read from it. * marks the point of attachment. NH(1-CH2NMe2-cBu) = CN(C)CC1(N*)CCC1; Benzoyl(4-F) = O=C(c1ccc(F)cc1)*; hCha = N[C@@H](CCC1CCCCC1)C(=O)O; Aib = CC(C)(N)C(=O)O; βAla = NCCC(=O)O

What was measured:
[1] = system: Streptococcus pyogenes ATCC 19615; assay: MIC broth microdilution, method 1; format: cell-based; conditions: CAMHB II, 5% LHB, 1 day at 36° C., 6027 acetate
[2] = system: Staphylococcus aureus NARSA VRS2; assay: microbe, parasite or virus in culture; format: cell-based
[3] = system: axenic Leishmania donovani MHOM-ET-67/L82 amastigotes; assay: In vitro antiprotozoal assay, axenic amastigotes; format: cell-based; conditions: axenic amastigotes; read-out: L.don.ax. IC50
Method: (§3) The testing of the inventive compounds against Leishmania donovani (strain MHOM/ET/67/L82) was performed in 96 well plates at concentrations in serial dilutions. Tests were done in triplicate.

[4] = system: Clostridium difficile ATCC BAA-1805; conditions: RCM, anaerobic, 2 days at 36° C., 6027 acetate
Method: The antibacterial activity of inventive compounds was determined in duplicate in a Minimum Inhibitory Concentration (MIC) assay.
The antibacterial activity of 6027 acetate was measured using the in vitro broth microdilution assay under assay conditions described by the Clinical and Laboratory Standards Institute. […] Pre-formulated DMSO stock solution (26.67 mg/mL) was provided by sponsor. The 26.67 mg/mL stock solution was then diluted in DMSO to prepare a 6.4 mg/mL working stock solution. The 6.4 mg/mL working stock solution was diluted by 2-fold serial titrations in DMSO, for a total of 11 test concentrations. A 4 μl aliquot of each dilution was added to 196 of broth medium seeded with the organism suspension in wells of a 96 well plate (bacterial count: 2 −8×10^5 colony forming units/mL final). The final volume was 200 μl in each well and the final DMSO concentration was 2 percent. Test concentrations were 128 to 0.125 μg/mL.
Following incubation, the plates were visually examined, and wells were scored for growth or complete growth inhibition to define the minimum inhibitory concentration. […] Vehicle-control and Vancomycin or Linezolid, as depicted at Table 8, were used as blank and positive controls, respectively.

[5] = system: Trichophyton mentagrophytes (ATCC 9533); format: cell-based
Method: (§1) Pre-formulated compound solution was diluted in 100% DMSO to prepare a 1.6 mg/mL working stock solution. […] Test concentration range was 0.032 to 32 μg/mL.
(§2) Vehicle-control and an active reference agent were used as blank and positive controls.

[6] = system: Trichophyton rubrum (ATCC 10218); format: cell-based
Method: as §1, §2

[7] = system: Staphylococcus aureus ATCC 43300, MRSA; format: cell-based; conditions: ATCC 43300, 18 h
Method: The antibacterial activity of inventive compounds was evaluated in duplicate in a further Minimum Inhibitory Concentration (MIC) assay.
Bacteria were cultured in Cation-adjusted Mueller Hinton broth (CAMHB) at 37° C. overnight. A sample of each culture was then diluted 40-fold in fresh broth and incubated at 37° C. for 1.5-3 h. The resultant mid-log phase cultures were diluted (CFU/mL measured by OD600), then added to each well of the compound containing plates, giving a cell density of 5×10^5 CFU/mL and a total volume of 50 μL. All the plates were covered and incubated at 37° C. for 18 h without shaking.
Samples were prepared in DMSO and serially diluted 2 fold 8 times. Each sample concentration was prepared in 384-well plates, non-binding surface plate (NBS; Corning 3640) for the bacterial strain ATCC 43300, MRSA. The final DMSO concentration was at a maximum of 0.5%.
Inhibition of bacterial growth was determined measuring absorbance at 600 nm (OD600), using a Tecan M1000 Pro monochromator plate reader. The percentage of growth inhibition was calculated for each well, using the negative control (media only) and positive control (bacteria without inhibitors) on the same plate as references. […] Vancomycin was used as positive bacterial inhibitor standards.

[8] = system: Staphylococcus aureus ATCC BAA-1717; assay: microbe, parasite or virus in culture; format: cell-based; conditions: ATCC BAA-1717, Methicillin resistant; CAMHB II, 1 day at 36° C.; 6027 acetate
[9] = system: Staphylococcus aureus ATCC 33591; assay: microbe, parasite or virus in culture; format: cell-based; conditions: ATCC 33591, Methicillin resistant; 6027 acetate
[10] = system: Staphylococcus aureus NARSA NRS383; assay: microbe, parasite or virus in culture; format: cell-based; conditions: NARSA NRS383
[11] = system: intracellular Leishmania donovani MHOM-ET-67/L82 amastigotes; assay: In vitro antiprotozoal assay, intracellular amastigotes; format: cell-based; conditions: intracellular amastigotes; read-out: L.don.InMac IC50
Method: as §3

[12] = physchem; conditions: octanol/water
[13] = system: Streptococcus agalactiae ATCC 12386; assay: MIC broth microdilution, method 1; format: cell-based; conditions: CAMHB II, 5% LHB, 1 day at 36° C., 6027 acetate
[14] = system: Staphylococcus aureus NARSA NRS22; assay: microbe, parasite or virus in culture; format: cell-based
[15] = system: Staphylococcus aureus NARSA NRS382; assay: microbe, parasite or virus in culture; format: cell-based; conditions: NARSA NRS382
[16] = system: S. aureus (USA300 MRSA, BAA-1556); assay: S. aureus dermal infection model in ICR mice, CFU/skin; format: in vivo, Staphylococcus aureus; conditions: 25 hours post inoculation; topical BID at 1 and 7 h post infection, 20 μL/mouse; 6027 1% in DMSO, fusidic acid 2%
Method: Inoculum preparation. The testing strain, S. aureus USA300 MRSA (BAA-1556), was obtained from the frozen working stock and thawed at room temperature. A 0.2 mL aliquot was inoculated into 20 mL Brain-Heart Infusion broth (BHI) and then incubated at 35-37° C. with shaking (120 rpm) for 8 h. Bacterial cells in the 20 mL culture were pelleted by centrifugation at 3,500×g for 15 minutes and then re-suspended in 10 mL cold PBS (>8.0×10^9 CFU/mL, OD620 1.8-2.0). The culture was then diluted in PBS to the target inoculum of 1.0×10^7 CFU/mL. The actual bacterial counts were determined by plating dilutions onto nutrient agar (NA) plates followed by 20-24 h incubation and colony counting. The actual CFU counts were 1.04×10^7 CFU/mL.
S. aureus (USA300 MRSA, BAA-1556) dermal infection model. Groups of 5 female ICR mice weighing 24±2 g were used. Animals were anesthetized with etomidate-lipuro emulsion (20 mg/10 mL) at 20 mg/kg by intravenous (IV) injection, and then the fur on the back was removed by an electric shaver, and the epidermal layer was disrupted with an abrasive paper. Mice were inoculated topically (TOP) on the wound area with S. aureus (MRSA, BAA-1556) suspension, 5 μL/mouse. The target inoculation density was 5×10^4 CFU/mouse and the actual inoculum count 5.2×10^4 CFU/mouse. Animals were housed separately after infection. Compound 6027 in DMSO at 1% was administered topically (TOP) twice (BID) at 1 and 7 h post infection. Reference control agent, fusidic acid cream at 20 mg/gram (2%), was administered TOP BID at 1 and 7 h post infection. One infected and untreated group was sacrificed at 1 h after infection for the initial (baseline) bacterial counts. The dose volumes were 20 μL/mouse for all dosing groups.
Animals were sacrificed at 1 or 25 h after inoculation with CO2 asphyxiation. The infected skin samples of the wound infection (around 2 cm 2 areas) were excised and were homogenized in 1 mL PBS (pH 7.4) with a polytron homogenizer. A 0.1 mL aliquot of each homogenate was used for serial 10-fold dilutions and plated onto NA plates for bacterial enumeration. The bacterial counts (CFU/skin) in skin tissues were calculated and the percentage decrease in counts compared to the corresponding vehicle control (placebo) was calculated with the following formula: Decrease (%)=[(CFU/skin of placebo —CFU/skin of treatment)/(CFU/skin of placebo)]×100%.

## CC(C)C[C@H](NC(=O)[C@H](CCC1CCCCC1)NC(=O)[C@@H]1CCCN1C(=O)c1ccc(F)cc1)C(=O)NC(C)(C)C(=O)N[C@@H](CC(C)C)C(=O)N[C@@H](CC(C)C)C(=O)NC(C)(C)C(=O)NC(C)(C)C(=O)NCCC(=O)NC1(CN(C)C)CCC1 [Compound 6027, (2S)-2-[(2S)-4-cyclohexyl-2-{[(2S)-1-(4-fluorobenzoyl)pyrrolidin-2-yl]formamido}butanamido]-N-(1-{[(1S)-1-{[(1S)-1-({1-[(1-{[2-({1-[(dimethylamino)methyl]cyclobutyl}carbamoyl)ethyl]carbamoyl}-1-methylethyl)carbamoyl]-1-methylethyl}carbamoyl)-3-methylbutyl]carbamoyl}-3-methylbutyl]carbamoyl}-1-methylethyl)-4-methylpentanamide] ({Benzoyl(4-F)}-P[hCha]L[Aib]LL[Aib][Aib][βAla]-{NH(1-CH2NMe2-cBu)})
[1]
  MIC of 6027: 4 µg/mL
[2]
  MIC of 6027: 2 µg/mL
[3]
  IC50: 5.7 nM
[4]
  MIC of 6027: 0.25 µg/mL
[5]
  T. mentagrophytes (ATCC 9533) MIC: 16 µg/mL
[6]
  T. rubrum (ATCC 10218) MIC: 32 µg/mL
[7]
  MIC: 2 µg/mL (≈ 1.69 µM)
[8]
  MIC of 6027: 1 µg/mL
[9]
  MIC of 6027: 4 µg/mL
[10]
  MIC of 6027: 2 µg/mL
[11]
  IC50: 54.2 nM
[12]
  logD: 4.56
[13]
  MIC of 6027: 1 µg/mL
[14]
  MIC of 6027: 2 µg/mL
[15]
  MIC of 6027: 1 µg/mL
[16]
  Decrease (%) in CFU/skin vs vehicle control: 71%
  LogCFU/skin after 25 hours (Standard error of the mean − SEM): 6.50 (0.16) LogCFU/skin
